Target: T1, human GR (Homo sapiens, UniProt P04150)
T1 sequence (P04150 1-777): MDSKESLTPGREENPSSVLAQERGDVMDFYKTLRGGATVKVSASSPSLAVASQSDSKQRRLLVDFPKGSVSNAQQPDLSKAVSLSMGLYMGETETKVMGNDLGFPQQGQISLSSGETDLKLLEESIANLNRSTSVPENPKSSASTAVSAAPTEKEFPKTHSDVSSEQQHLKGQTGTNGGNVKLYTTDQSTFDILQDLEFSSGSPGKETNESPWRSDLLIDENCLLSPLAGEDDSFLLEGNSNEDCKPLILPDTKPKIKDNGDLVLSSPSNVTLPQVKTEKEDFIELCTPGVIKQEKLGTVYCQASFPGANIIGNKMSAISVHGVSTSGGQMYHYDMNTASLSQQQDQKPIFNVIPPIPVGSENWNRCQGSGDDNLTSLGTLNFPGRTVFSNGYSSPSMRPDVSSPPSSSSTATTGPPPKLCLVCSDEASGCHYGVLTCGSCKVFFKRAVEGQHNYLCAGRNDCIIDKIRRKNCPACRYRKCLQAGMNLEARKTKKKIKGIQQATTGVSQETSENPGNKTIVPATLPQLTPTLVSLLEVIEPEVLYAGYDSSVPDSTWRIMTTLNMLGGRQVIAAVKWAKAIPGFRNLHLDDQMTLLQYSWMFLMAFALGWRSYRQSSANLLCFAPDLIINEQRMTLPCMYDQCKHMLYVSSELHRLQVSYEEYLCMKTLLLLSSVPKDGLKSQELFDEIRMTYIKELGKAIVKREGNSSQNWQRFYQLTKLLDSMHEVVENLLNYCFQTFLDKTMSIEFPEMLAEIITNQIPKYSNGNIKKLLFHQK
Test: Trans-Activation Modulation of Glucocorticoid Receptor (GRAMMER), MMTV-LUC reporter, agonist mode
Type: cell-based
Set-up: endogenous in cells
Settings: for Emax: A549, A549 cells, maximum activity, read-out: Transactivation A549 Cells GRAMMER Emax; for EC50: A549 cells, inflection point, read-out: Transactivation A549 Cells GRAMMER IP
How it was run: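 Readout is luciferase from a modified MMTV LTR promoter after 24 h compound exposure alongside 10 nM dexamethasone (100% activity reference), DMSO ≤1%.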

SMILES | Emax [%] | EC50 [nM]
COc1ccccc1CCN(C[C@H]1CCC2=Cc3c(cnn3-c3ccc(F)cc3)C[C@@]21C)S(=O)(=O)c1ccccc1F [Example 90, 2-fluoro-N-{[(4αR,5S)-1-(4-fluorophenyl)-4α-methyl-1,4,4α,5,6,7-hexahydrocyclopenta[f]indazol-5-yl]methyl}-N-[2-(2-methoxyphenyl)ethyl]benzenesulfonamide] | 33.5 | 354
Cc1ccc(CCN(C[C@H]2CCC3=Cc4c(cnn4-c4ccc(F)cc4)C[C@@]32C)S(=O)(=O)c2ccccc2F)cc1 [Example 91, 2-fluoro-N-{[(4αR,5S)-1-(4-fluorophenyl)-4α-methyl-1,4,4α,5,6,7-hexahydrocyclopenta[f]indazol-5-yl]methyl}-N-[2-(4-methylphenyl)ethyl]benzenesulfonamide] | 10.7 | 643
C[C@]12Cc3cnn(-c4ccc(F)cc4)c3C=C1CC[C@@H]2CN(CCc1ccccc1Cl)S(=O)(=O)c1ccccc1F [Example 92, N-[2-(2-chlorophenyl)ethyl]-2-fluoro-N-{[(4αR,5S)-1-(4-fluorophenyl)-4α-methyl-1,4,4α,5,6,7-hexahydrocyclopenta[f]indazol-5-yl]methyl}benzenesulfonamide] | 41.6 | 504
CC(C1CCC2=Cc3c(cnn3-c3ccc(F)cc3)C[C@@]21C)N(CCc1ccccc1F)S(=O)(=O)CC(F)(F)F (stereo partly drawn) [Example 93, 2,2,2-trifluoro-N-[2-(2-fluorophenyl)ethyl]-N-{1-[(4αR)-1-(4-fluorophenyl)-4α-methyl-1,4,4α,5,6,7-hexahydrocyclopenta[f]indazol-5-yl]ethyl}ethanesulfonamide] | 50.9 | 296
COCCN(C[C@H]1CCC2=Cc3c(cnn3-c3ccc(F)cc3)C[C@@]21C)S(=O)(=O)c1ccccc1F [Example 94, 2-fluoro-N-{[(4αR,5S)-1-(4-fluorophenyl)-4α-methyl-1,4,4α,5,6,7-hexahydrocyclopenta[f]indazol-5-yl]methyl}-N-(2-methoxyethyl)benzenesulfonamide] | 43.9 | 423
